Results taken from patent US20110105611A1, “USE OF MASLINIC ACID FOR THE TREATMENT OF P[…] THEIR SYMPTOMS THROUGH THE INHIBITION OF COX-2” (Biomaslinic S.L., priority 2008, published 2011).
Entries after “also recorded” stand apart in the source; their conditions may differ. Where two headings read alike, the source gives them in different places.

Experiments:
[1] = tested on: PGE2 production in human monocytes; test: PGE2 production in LPS-stimulated human monocytes of peripheral blood (EIA); assay type: cell-based; conditions: LPS-stimulated human monocytes from peripheral blood
From the text: (§1) 2. Cell Cultures • Isolation and culture of primary monocytes of peripheral blood. Peripheral blood mononuclear cells (PBMC) coming from healthy adults volunteer donors were isolated by venous blood centrifugation through density gradient with Ficoll-Hypaque. The monocytes were separated through adherence to plastic and later cultured in 24-well plates at a density of 50,000 cells/ml for the enzyme immunoassay (EIA) experiments and in 6-well plates for the immunoblot assays. • Culture of human primary chondrocytes. Chondrocytes were bought from Promocell (Heidelberg, Germany) and cultured in medium conditioned for this type of cells. The cells were cultured in 24-well plates for the determination of PGE2 and IL-6. • Culture of rat primary astrocytes. The astrocyte primary cultures were prepared from neonatal rat brains (1 day old). […] The cultures were expanded in 6-well plates and the production of PGE2 measured in cells after the 3 or 4 pass. • Culture of cell lines. […]
Chondrocyte, monocyte and astrocyte cultures were stimulated with the corresponding activators (IL-1, LPS or PMA plus lonomicine) in presence or absence of several concentrations of maslinic acid during the indicated times. […] PGE2 was determined using the EIA system of Assay Designs (catalogue number 901-001) following the manufacturer instructions. […]

[2] = tested on: COX-2; test: COX-2 protein expression in LPS-stimulated monocytes (western blot); assay type: cell-based, human; conditions: growing doses of MA, 12 hours, listed as MA
From the text: as §1, with “cells.” for “cells. The cells were cultured in 24-well plates for the determination of PGE2 and IL-6. • Culture of rat primary astrocytes. The astrocyte primary cultures were prepared from neonatal rat brains (1 day old).”
The cells (primary monocytes or SK—N—SH) were stimulated as indicated in each case and lysis solution in 50 μl (20 mM Hepes pH 8.0, 10 mM KCl, 0.15 mM EGTA, 0.15 mM EDTA, 0.5 mM Na3VO4, 5 mM NaF, 1 mM DTT, leupeptin 1 μg/ml, pepstatin 0.5 μg/ml, aprotinin 0.5 μg/ml, 1 mM PMSF y 0.5% NP-40). The protein concentration was determined through the Bradford reagent (Bio-Rad, Richmond, Calif., USA) and 30 μg of proteins were boiled in Laemmli solution and submitted to electrophoresis in gel of SDS/polyacrylamide at 10%. […]

[3] = tested on: COX-2; test: COX-2 enzymatic activity in LPS-induced monocytes (conversion of arachidonic acid to PGE2); assay type: cell-based, human; conditions: monocytes LPS 24 hours, MA 15 minutes, arachidonic acid 15 μM 15 minutes
Experimental: In order to determine COX-2 activity, the cells were LPS-stimulated first (10 ng/ml) for 24 hours to induce the cellular expression of the COX-2 protein. After that time the cultures were washed and a new free of serum culture medium, maslinic acid (different concentrations) and arachidonic acid (AA) were added for 15 minutes. During this time, the enzymatic activity of COX-2 was measured by its capacity to produce PGE2 from the AA included in the culture.
Vis-à-vis the possibility of MA acting as inhibitor of COX-2 activity, we induced the expression of COX-2 through the treatment of monocytes with LPS for 24 hours. After this time, the cells were washed three times with a medium without serum and incubated for 15 minutes with growing doses of MA. After this time, arachidonic acid was added to the cultures (15 μM) for other 15 minutes and the conversion to PGE2 was measured by EIA.

[4] = tested on: promoter of the COX-2 gene; test: COX-2 promoter luciferase assay in transfected SK-N-SH cells; assay type: cell-based, human; conditions: PMA plus ionomycin 6 hours
From the text: as §1
(§2) SK—N—SH cells were transfected with the plasmids COX-2-Luc and IL-6-Luc using the JetPei reagent (Polyplus transfection, France) according to the manufacturer instructions. […] The luciferase activity in the protein extract was determined through the use of the luminometer Autolumat LB9510 (Berthold) following the system instructions of Luciferase assay from Promega (Madison, Wis., USA). […]

[5] = tested on: PGE2 production in human chondrocytes; test: PGE2 release in primary human chondrocytes stimulated with IL-1; assay type: cell-based; conditions: IL-1 10 U/ml; for release of PGE2 induced by IL-1, higher doses: MA 25 and 50 μg/ml
From the text: (§3) 2. Cell Cultures • Isolation and culture of primary monocytes of peripheral blood. Peripheral blood mononuclear cells (PBMC) coming from healthy adults volunteer donors were isolated by venous blood centrifugation through density gradient with Ficoll-Hypaque. The monocytes were separated through adherence to plastic and later cultured in 24-well plates at a density of 50,000 cells/ml for the enzyme immunoassay (EIA) experiments and in 6-well plates for the immunoblot assays. • Culture of human primary chondrocytes. Chondrocytes were bought from Promocell (Heidelberg, Germany) and cultured in medium conditioned for this type of cells. The cells were cultured in 24-well plates for the determination of PGE2 and IL-6. • Culture of rat primary astrocytes. The astrocyte primary cultures were prepared from neonatal rat brains (1 day old). The upper part of the brain was opened and the meninges carefully separated to avoid contamination of the cultures with fibroblasts. The cerebral cortex was isolated and a cellular suspension was obtained, which was cultured in DMEM conditioned for the astrocyte culture. The cultures were expanded in 6-well plates and the production of PGE2 measured in cells after the 3 or 4 pass. • Culture of cell lines. SK—N—SH (American Tissue Culture collection, HTB 11) is a cell line derived from a human neuroblastoma and an exponential growth in DMEM supplemented by 2 mmol/l L-glutamine, antibiotics and 10% FCS. The cells were cultured at 37° C. and in an atmosphere at 5% CO2.
(§4) Chondrocyte, monocyte and astrocyte cultures were stimulated with the corresponding activators (IL-1, LPS or PMA plus lonomicine) in presence or absence of several concentrations of maslinic acid during the indicated times. […] PGE2 was determined using the EIA system of Assay Designs (catalogue number 901-001) following the manufacturer instructions.
(§5) In order to determine if the effect of MA on the production of PGE2 also occurred in another cell type involved in inflammatory phenomena the anti-inflammatory activity of maslinic acid on primary human chondrocytes was determined. […]

[6] = tested on: IL-6 production in human chondrocytes; test: IL-6 production in primary human chondrocytes stimulated with IL-1; assay type: cell-based; conditions: IL-1 10 U/ml, concentration dependent
From the text: as §1, with “old). The upper part of the brain was opened and the meninges carefully separated to avoid contamination of the cultures with fibroblasts.” for “old).”
as §5

[7] = tested on: IL-6 production in human monocytes; test: IL-6 production in LPS-stimulated human monocytes (EIA); assay type: cell-based
From the text: as §1
(§6) Monocyte cultures were stimulated in the same way as for the production of PGE2 (LPS stimulation for 24 hours) and the amount of 8-iso-prostaglandine F2α (isoprostanes) or IL-6 released by the cells was determined respectively through the systems EIA from Cayman (USA) (catalogue number 516351) or from Pelikine (catalogue number RDI-M1916clb) following the manufacturer instructions.

[8] = tested on: promoter of IL-6; test: IL-6 promoter luciferase assay in transfected SK-N-SH cells; assay type: cell-based, human; conditions: listed as MA
From the text: as §1, §2

[9] = tested on: 8-iso-PGF2α production in human monocytes; test: Isoprostane (8-iso-PGF2α) release in LPS-stimulated human monocytes (EIA); assay type: cell-based; conditions: for release of 8-iso-PGF2α (isoprostanes): human monocytes of peripheral blood after LPS stimulation
From the text: as §3, §6
Isoprostanes such as endoperoxide 8-iso-prostaglandin F2α (8-iso-PGF2α) are metabolites of the oxidation of arachidonic acid and nowadays it is considered one of the best markers of oxidative stress. […]

[10] = tested on: PGE2 production in primary astrocytes; test: PGE2 production in primary rat astrocytes; assay type: cell-based
From the text: as §1, §4

[11] = tested on: PGE2 production in SK-N-SH cells; test: PGE2 production in SK-N-SH neuroblastoma cell line; assay type: cell-based, human
From the text: as §1, §4

[12] = tested on: T lymphocytes; test: Activation and proliferation of T lymphocytes stimulated via TCR; assay type: cell-based
[13] = tested on: TNFα production in primary monocytes; test: TNFα production in primary monocytes; assay type: cell-based
[14] = tested on: tumor cell lines; test: Apoptosis induction in tumor cell lines (concentration comparison); assay type: cell-based
[15] = tested on: LPS-stimulated murine peritoneal macrophages; conditions: cited from earlier work
[16] = tested on: mononuclear cells of human peripheral blood; conditions: cited from earlier work

CC1(C)CC[C@]2(C(=O)O)CC[C@]3(C)C(=CC[C@@H]4[C@@]5(C)C[C@@H](O)[C@H](O)C(C)(C)[C@@H]5CC[C@]43C)[C@@H]2C1 [maslinic acid, 2-alpha,3-beta-dihydroxyolean-12-en-28-oic acid]
production of PGE2 [1]: inhibits the production; also recorded: inhibited the production of PGE2
production of PGE2 ([1]; listed as Maslinic acid): inhibits the production of PGE2
expression of COX-2 induced by LPS (western blot) [2]: did not inhibit the expression of COX-2
enzymatic activity of COX-2 (conversion of arachidonic acid to PGE2, EIA) [3]: inhibits the enzymatic activity of COX-2
enzymatic activity of COX-2 (conversion of arachidonic acid to PGE2, EIA) ([3]; listed as MA): inhibited in a dose-depending manner the enzymatic activity of COX-2
transcriptional activity of the COX-2 gene (luciferase) [4]: does not inhibit the transcriptional activation of the gene promoter of COX-2
transcriptional activity of the COX-2 gene (luciferase) ([4]; listed as MA): did not affect the transcriptional activity of the COX-2 gene
production of PGE2 after stimulation with IL-1, low doses ([5]; MA 0.1 and 1 μg/ml): an increase in the production of PGE2
release of PGE2 induced by IL-1, higher doses [5]: at high doses inhibits the production of PGE2
release of PGE2 induced by IL-1, higher doses ([5]; listed as MA): a complete inhibition of the release of this prostaglandin
production of IL-6 [6]: inhibits the production of IL-6
production of IL-6 ([6]; listed as MA): completely inhibited
IL-6 induced by LPS [7]: inhibits the production
IL-6 induced by LPS ([7]; listed as Maslinic acid): inhibits the production of IL-6
transcriptional activity of the IL-6 promoter (luciferase), IL-1 stimulation ([8]; IL-1, 4 hours): is not produced by a transcriptional inhibition of the gene of IL-6; also recorded: does not inhibit the transcriptional activity of the IL-1 promoter
transcriptional activity of the IL-6 promoter (luciferase), PMA plus ionomycin stimulation ([8]; PMA plus ionomycin, 4 hours): is not produced by a transcriptional inhibition of the gene of IL-6; also recorded: does not inhibit the transcriptional activity of the IL-1 promoter
release of 8-iso-PGF2α (isoprostanes) [9]: inhibits the production of isoprostanes
release of 8-iso-PGF2α (isoprostanes) ([9]; listed as MA): inhibits in a concentration depending way the release of 8-iso-PGF2α
inhibiting power on the production of isoprostanes compared with reference antioxidants ([9]; primary monocytes, listed as MA): higher than that of tocopherol and trolox; also recorded: comparable to that of resveratrol
production of PGE2 in primary astrocytes [10]: Dual Effect
production of PGE2 in SK-N-SH cell line (neuroblastoma) ([11]; listed as Maslinic Acid): Dual Effect
production of PGE2 in SK-N-SH cell line (neuroblastoma) ([11]; listed as Maslinic acid): at high doses inhibits the production of PGE2
activation and proliferation of T lymphocytes [12]: inhibits the activation and proliferation of T lymphocytes
production of TNFα [13]: inhibits the production
concentrations inhibiting innate and acquired immune responses versus those required to induce apoptosis in tumor cell lines [14]: noticeably lower
production of NO [15]: inhibits
production of hydrogen peroxide (ROS) [15]: inhibits
release of IL-6 [15]: inhibits
release of TNFα [15]: inhibits
inhibition of IL-6, TNFα, NO and hydrogen peroxide [16]: do not find
